Source: patent publication US20230272460A1, “Method for Targeted Nucleic Acid Cleavage” (Cambridge Enterprise Limited, priority 2020, published 2023)

Test system: 18S and BRD4 transcripts in MOLM13 cells
Test: Cellular RNA degradation reactions (acCLICK-Seq), RT-qPCR
Format: cell-based, human
Protocol: MOLM13 cells were suspended RPMI-1640 media (Gibco) supplemented with 10% v/v FBS and 1% v/v penicillin/streptomycin/L-glutamine at a density of 1,000,000 cells mL^-1. The cells were incubated for 30 min at 37° C. followed by addition of ethyl-3-butynoate at a final concentration of 200 μM. Treated cells were incubated for further 24 h at 37° C. […] Levels of specific RNAs were measured using fast mode of QuantStudio 3 Real-Time PCR System (Applied Biosystems) and PowerUpTM SYBR Green Master Mix (Applied Biosystems) according to the manufacturer's instructions. In the qPCR analysis RNA levels were normalised to the 5S gene ([…]) or the GAPDH gene (glycoCLICK-seq). These housekeeping gene was chosen as their levels fluctuated the least under various conditions tested.

C#CCC(=O)OCC [ethyl-3-butynoate, Ethyl-3-butynoate]
relative expression levels of 18S and BRD4 transcripts, clicked versus non-clicked control cells (WT MOLM13, ethyl-3-butynoate 200 μM 24 h, then click-degrader 1 400 μM CuAAC): reduction
expression levels of 18S and BRD4 transcripts in clicked cells (cells with NAT10 knocked-out): rescued
